The text below walks through data of US9346815B2, “5-chloro-2-difluoromethoxyphenyl pyrazolopyrimidine compounds, compositions and methods of use thereof” (Genentech, Inc., priority 2014, dated 2016).

Assay [1] deals with isolated recombinant JAK2 kinase domain (Homo sapiens (Human), UniProt O60674). As to the kind of experiment: JAK2 enzyme assay (Caliper LabChip, peptide phosphorylation). The following applies: 25 μM ATP. The format is biochemical.
Assay [2] concerns JAK1-dependent STAT6 phosphorylation downstream of IL-13 stimulation in TF-1 human erythroleukemia cells. The assay can be described thus: JAK1 pathway assay in TF-1 cells (IL-13-pSTAT6, MSD). The class given is cell-based. The following applies: Homo sapiens, TF-1, TF-1 cells, read-out: IL13-pSTAT6 EC50_TF-1. In short, it runs like this: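 TF-1 cells are starved of GM-CSF overnight and run in serum-free medium, while BEAS-2B cells stay in complete growth medium. Inhibition of STAT6 phosphorylation is measured by MSD.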

For assay [3], the target named is isolated recombinant JAK1 kinase domain (Homo sapiens (Human), UniProt P23458). The assay can be described thus: JAK1 enzyme assay (Caliper LabChip, peptide phosphorylation). The format is biochemical. The following applies: isolated recombinant JAK1 kinase domain, 25 μM ATP.
Chain of isolated recombinant JAK1 kinase domain (P23458 875-1153): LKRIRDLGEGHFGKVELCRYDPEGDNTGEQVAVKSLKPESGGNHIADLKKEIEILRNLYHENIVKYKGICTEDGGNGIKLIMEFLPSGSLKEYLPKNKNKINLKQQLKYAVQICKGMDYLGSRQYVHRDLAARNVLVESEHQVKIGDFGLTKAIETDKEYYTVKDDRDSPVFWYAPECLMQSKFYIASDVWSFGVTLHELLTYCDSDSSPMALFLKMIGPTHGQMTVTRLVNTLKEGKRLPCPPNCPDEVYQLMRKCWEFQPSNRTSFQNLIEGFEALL

Where a name gives a salt, the structure may show the parent alone.

Chain of isolated recombinant JAK2 kinase domain (O60674 849-1124): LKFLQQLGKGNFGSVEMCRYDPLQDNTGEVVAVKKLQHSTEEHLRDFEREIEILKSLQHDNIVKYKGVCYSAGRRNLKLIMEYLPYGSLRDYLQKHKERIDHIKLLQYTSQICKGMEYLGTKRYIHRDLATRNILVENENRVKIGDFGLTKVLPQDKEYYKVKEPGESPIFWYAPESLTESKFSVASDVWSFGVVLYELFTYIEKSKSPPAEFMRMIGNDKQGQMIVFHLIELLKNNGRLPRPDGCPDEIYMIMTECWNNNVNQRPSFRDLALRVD

In the case of `Cc1ccc(CN(C)C2CCN(C(=O)Cn3cc(NC(=O)c4cnn5cccnc45)c(-c4cc(Cl)ccc4OC(F)F)n3)CC2)c(C)c1` [Example 129, N-[3-[5-chloro-2-(difluoromethoxy)phenyl]-1-[2-[4-[(2,4-dimethylphenyl)methyl-methyl-amino]-1-piperidyl]-2-oxo-ethyl]pyrazol-4-yl]pyrazolo[1,5-a]pyrimidine-3-carboxamide], the Ki in assay [1] worked out at 3.33 nM; in assay [3] it was 1.14 nM. Besides, the EC50 in assay [2] amounted to 14.2 nM.

Take `Cc1cnc2c(C(=O)Nc3cn(CC(=O)N4C[C@H]5CN(C)C[C@H]5C4)nc3-c3cc(Cl)ccc3OC(F)F)cnn2c1` [Example 8, 6-Methyl-pyrazolo[1,5-a]pyrimidine-3-carboxylic acid {3-(5-chloro-2-difluoromethoxy-phenyl)-1-[2-((3aR,6aS)-5-methyl-hexahydro-pyrrolo[3,4-c]pyrrol-2-yl)-2-oxo-ethyl]-1H-pyrazol-4-yl}-amide hydrochloride]: the Ki in assay [1] amounted to 120 nM; in assay [3] it was 96.3 nM. In addition, the EC50 in assay [2] was determined as 746 nM.

Regarding `CNC(=O)CN1CCC(n2cc(NC(=O)c3cnn4cccnc34)c(-c3cc(Cl)ccc3OC(F)F)n2)CC1` [Example 157, N-[3-[5-chloro-2-(difluoromethoxy)phenyl]-1-[1-[2-(methylamino)-2-oxo-ethyl]-4-piperidyl]pyrazol-4-yl]pyrazolo[1,5-a]pyrimidine-3-carboxamide], the Ki in assay [1] stood at 0.75 nM; in assay [3], 1.32 nM. Besides, in assay [2], the EC50 turned out to be 9.2 nM.

Consider `CN(CC(F)(F)F)C1CCN(C(=O)c2ccc(-n3cc(NC(=O)c4cnn5cccnc45)c(-c4cc(Cl)ccc4OC(F)F)n3)cc2)CC1` [Example 303, N-[3-[5-chloro-2-(difluoromethoxy)phenyl]-1-[4-[4-[methyl(2,2,2-trifluoroethyl)amino]piperidine-1-carbonyl]phenyl]pyrazol-4-yl]pyrazolo[1,5-a]pyrimidine-3-carboxamide], for which the Ki in assay [1] was 3.28 nM; in assay [3], 1.9 nM. Also, the EC50 in assay [2] is 78.4 nM.

In the case of `CN(C)C(=O)CCCN1CCC(n2cc(NC(=O)c3c(N)nn4cccnc34)c(-c3cc(Cl)ccc3OC(F)F)n2)CC1` [Example 148, 2-amino-N-[3-[5-chloro-2-(difluoromethoxy)phenyl]-1-[1-[4-(dimethylamino)-4-oxo-butyl]-4-piperidyl]pyrazol-4-yl]pyrazolo[1,5-a]pyrimidine-3-carboxamide], the inhibition constant Ki in assay [1] is 0.1 nM; in assay [3], 0.64 nM. Further, the EC50 in assay [2] is 9.4 nM.

Turning to `CN1CCN(c2ccc(-c3nc(-c4cc(Cl)ccc4OC(F)F)c(NC(=O)c4cnn5cccnc45)s3)cc2)CC1` [Example 258, N-[4-[5-chloro-2-(difluoromethoxy)phenyl]-2-[4-(4-methylpiperazin-1-yl)phenyl]thiazol-5-yl]pyrazolo[1,5-a]pyrimidine-3-carboxamide], the Ki in assay [1] stood at 0.72 nM; in assay [3] it was 1.17 nM. Also, in assay [2], the EC50 turned out to be 71 nM.

On to `C=CCN(CCOc1ccc(C)cc1)C1CCN(C(=O)Cn2cc(NC(=O)c3cnn4cccnc34)c(-c3cc(Cl)ccc3OC(F)F)n2)CC1` [Example 109, N-[1-[2-[4-[allyl-[2-(4-methylphenoxy)ethyl]amino]-1-piperidyl]-2-oxo-ethyl]-3-[5-chloro-2-(difluoromethoxy)phenyl]pyrazol-4-yl]pyrazolo[1,5-a]pyrimidine-3-carboxamide], for which the Ki in assay [1] is 7.3 nM; in assay [3], 3.22 nM. For the same molecule, the EC50 in assay [2] was found to be 42.9 nM.

Regarding `CN1CC[C@H]2CN(C(=O)Cn3cc(NC(=O)c4cnn5cccnc45)c(-c4cc(Cl)ccc4OC(F)F)n3)C[C@H]2C1` [Example 53, N-[1-[2-[(3aR,7aR)-5-methyl-3,3a,4,6,7,7a-hexahydro-1H-pyrrolo[3,4-c]pyridin-2-yl]-2-oxo-ethyl]-3-[5-chloro-2-(difluoromethoxy)phenyl]pyrazol-4-yl]pyrazolo[1,5-a]pyrimidine-3-carboxamide], the Ki in assay [1] amounted to 1.22 nM; in assay [3] it was 0.61 nM. In assay [2], the EC50 turned out to be 10.9 nM.

As for `CN1CC[C@@H]2CN(C(=O)Cn3cc(NC(=O)c4cnn5cccnc45)c(-c4cc(Cl)ccc4OC(F)F)n3)C[C@@H]2C1` [Example 49, N-[1-[2-[(3aS,7aS)-5-methyl-3,3a,4,6,7,7a-hexahydro-1H-pyrrolo[3,4-c]pyridin-2-yl]-2-oxo-ethyl]-3-[5-chloro-2-(difluoromethoxy)phenyl]pyrazol-4-yl]pyrazolo[1,5-a]pyrimidine-3-carboxamide], the values for the Ki in assay [1] and in assay [3] were 0.96 nM and 0.5 nM, respectively. In assay [2], the EC50 was 11.3 nM.

In the case of `CN1CC[C@H]2CN(C(=O)Cn3cc(NC(=O)c4cnn5cccnc45)c(-c4cc(Cl)ccc4OC(F)F)n3)CC[C@H]21` [Example 42, N-[1-[2-[(3aS,7aR)-1-methyl-3,3a,4,6,7,7a-hexahydro-2H-pyrrolo[3,2-c]pyridin-5-yl]-2-oxo-ethyl]-3-[5-chloro-2-(difluoromethoxy)phenyl]pyrazol-4-yl]pyrazolo[1,5-a]pyrimidine-3-carboxamide], the values for the Ki in assay [1] and in assay [3] were 0.67 nM and 0.69 nM, respectively. The EC50 in assay [2] stood at 3.1 nM.

For the molecule `O=C(Nc1cn(CC(=O)N2C[C@H]3CN(CCCN4CCOCC4)C[C@H]3C2)nc1-c1cc(Cl)ccc1OC(F)F)c1cnn2cccnc12` [Example 19, N-[1-[2-[(3aR,6aS)-2-(3-morpholinopropyl)-1,3,3a,4,6,6a-hexahydropyrrolo[3,4-c]pyrrol-5-yl]-2-oxo-ethyl]-3-[5-chloro-2-(difluoromethoxy)phenyl]pyrazol-4-yl]pyrazolo[1,5-a]pyrimidine-3-carboxamide], the Ki in assay [1] came to 0.71 nM; in assay [3] it was 0.72 nM. Moreover, the EC50 in assay [2] was 379 nM.

With `O=C(Nc1cn(CC(=O)N2C[C@H]3CN(CCCO)C[C@H]3C2)nc1-c1cc(Cl)ccc1OC(F)F)c1cnn2cccnc12` [Example 14, N-[1-[2-[(3aR,6aS)-2-(3-hydroxypropyl)-1,3,3a,4,6,6a-hexahydropyrrolo[3,4-c]pyrrol-5-yl]-2-oxo-ethyl]-3-[5-chloro-2-(difluoromethoxy)phenyl]pyrazol-4-yl]pyrazolo[1,5-a]pyrimidine-3-carboxamide], the values for the Ki in assay [1] and in assay [3] were 1.13 nM and 1.14 nM, respectively. Also, the EC50 in assay [2] was 335 nM.

`O=C(Nc1cn(CC(=O)N2CCC3(CCN(CC4CCN(C(=O)OCc5ccccc5)CC4)C3)CC2)nc1-c1cc(Cl)ccc1OC(F)F)c1cnn2cccnc12` [Example 226, benzyl 4-[[8-[2-[3-[5-chloro-2-(difluoromethoxy)phenyl]-4-(pyrazolo[1,5-a]pyrimidine-3-carbonylamino)pyrazol-1-yl]acetyl]-2,8-diazaspiro[4.5]decan-2-yl]methyl]piperidine-1-carboxylate]: the Ki came to 1.11 nM in assay [1] and 0.41 nM in assay [3]. Besides, the EC50 in assay [2] came to 41.5 nM.

On to `CN(Cc1ccccc1)C1CCN(c2nc(-c3cc(Cl)ccc3OC(F)F)c(NC(=O)c3cnn4cccnc34)s2)CC1` [Example 201, N-[2-[4-[benzyl(methyl)amino]-1-piperidyl]-4-[5-chloro-2-(difluoromethoxy)phenyl]thiazol-5-yl]pyrazolo[1,5-a]pyrimidine-3-carboxamide], for which the Ki in assay [1] was 3.76 nM; in assay [3], 5.05 nM. The EC50 in assay [2] stood at 184 nM.

Regarding `O=C(Nc1cn(CC(=O)N2C[C@H]3CN(CCc4ccccc4)C[C@H]3C2)nc1-c1cc(Cl)ccc1OC(F)F)c1cnn2cccnc12` [Example 13, N-[1-[2-[(3aS,6aR)-2-(2-phenylethyl)-1,3,3a,4,6,6a-hexahydropyrrolo[3,4-c]pyrrol-5-yl]-2-oxo-ethyl]-3-[5-chloro-2-(difluoromethoxy)phenyl]pyrazol-4-yl]pyrazolo[1,5-a]pyrimidine-3-carboxamide], the values for the Ki in assay [1] and in assay [3] were 0.66 nM and 0.73 nM, respectively. Moreover, in assay [2], the EC50 worked out at 22 nM.

Consider `NC(=O)CCN1CCC(n2cc(NC(=O)c3c(N)nn4cccnc34)c(-c3cc(Cl)ccc3OC(F)F)n2)CC1` [Example 165, 2-amino-N-[1-[1-(3-amino-3-oxo-propyl)-4-piperidyl]-3-[5-chloro-2-(difluoromethoxy)phenyl]pyrazol-4-yl]pyrazolo[1,5-a]pyrimidine-3-carboxamide], for which the Ki was determined as 0.15 nM in assay [1] and 0.38 nM in assay [3]. In assay [2], the EC50 is 6.9 nM.

Turning to `CS(=O)(=O)CCCN1CCC(n2cc(NC(=O)c3c(N)nn4cccnc34)c(-c3cc(Cl)ccc3OC(F)F)n2)CC1` [Example 177, 2-amino-N-[3-[5-chloro-2-(difluoromethoxy)phenyl]-1-[1-(3-methylsulfonylpropyl)-4-piperidyl]pyrazol-4-yl]pyrazolo[1,5-a]pyrimidine-3-carboxamide], the Ki in assay [1] came to 0.09 nM; in assay [3], 0.45 nM. Besides, in assay [2], the EC50 was 15 nM.

For the molecule `CN1CCN(C(=O)c2ccc(-c3nc(-c4cc(Cl)ccc4OC(F)F)c(NC(=O)c4cnn5cccnc45)s3)cc2)CC1` [Example 259, N-[4-[5-chloro-2-(difluoromethoxy)phenyl]-2-[4-(4-methylpiperazine-1-carbonyl)phenyl]thiazol-5-yl]pyrazolo[1,5-a]pyrimidine-3-carboxamide], the Ki in assay [1] was 0.56 nM; in assay [3], 0.93 nM. The EC50 in assay [2] turned out to be 13 nM.

Regarding `CN(Cc1cccc(Oc2ccccc2)c1)C1CCN(C(=O)Cn2cc(NC(=O)c3cnn4cccnc34)c(-c3cc(Cl)ccc3OC(F)F)n2)CC1` [Example 113, N-[3-[5-chloro-2-(difluoromethoxy)phenyl]-1-[2-[4-[methyl-[(3-phenoxyphenyl)methyl]amino]-1-piperidyl]-2-oxo-ethyl]pyrazol-4-yl]pyrazolo[1,5-a]pyrimidine-3-carboxamide], the Ki in assay [1] came to 2.15 nM; in assay [3], 1.19 nM. Moreover, in assay [2], the EC50 is 30.6 nM.
